Patent US20240208992A1, “MACROCYCLES AS CFTR MODULATORS” (Idorsia Pharmaceuticals Ltd, priority 2021, published 2024)
pEC50: −log10 of the molar value.

Biological target: human F508del-CFTR (Homo sapiens, UniProt P13569, DEL508-508)
Assay: F508del-CFTR cell surface expression (corrector activity), DiscoveRx ß-galactosidase complementation chemiluminescence assay in recombinant U2OS cell line;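 further: U2OS cells co-expressing ProLink-tagged F508del-CFTR and a membrane-anchored enzyme acceptor, where more surface CFTR restores β-galactosidase activity measured by chemiluminescence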
Settings: for pEC50: EC50, F508del-CFTR cell surface expression, U2OS cells, 16h compound incubation, geomean values; for Emax: U2OS, in relation to Emax of corrector lumacaftor (=100%), arithmetic mean values

Chain of human F508del-CFTR (P13569 with tags, fused parts or gaps DEL508-508): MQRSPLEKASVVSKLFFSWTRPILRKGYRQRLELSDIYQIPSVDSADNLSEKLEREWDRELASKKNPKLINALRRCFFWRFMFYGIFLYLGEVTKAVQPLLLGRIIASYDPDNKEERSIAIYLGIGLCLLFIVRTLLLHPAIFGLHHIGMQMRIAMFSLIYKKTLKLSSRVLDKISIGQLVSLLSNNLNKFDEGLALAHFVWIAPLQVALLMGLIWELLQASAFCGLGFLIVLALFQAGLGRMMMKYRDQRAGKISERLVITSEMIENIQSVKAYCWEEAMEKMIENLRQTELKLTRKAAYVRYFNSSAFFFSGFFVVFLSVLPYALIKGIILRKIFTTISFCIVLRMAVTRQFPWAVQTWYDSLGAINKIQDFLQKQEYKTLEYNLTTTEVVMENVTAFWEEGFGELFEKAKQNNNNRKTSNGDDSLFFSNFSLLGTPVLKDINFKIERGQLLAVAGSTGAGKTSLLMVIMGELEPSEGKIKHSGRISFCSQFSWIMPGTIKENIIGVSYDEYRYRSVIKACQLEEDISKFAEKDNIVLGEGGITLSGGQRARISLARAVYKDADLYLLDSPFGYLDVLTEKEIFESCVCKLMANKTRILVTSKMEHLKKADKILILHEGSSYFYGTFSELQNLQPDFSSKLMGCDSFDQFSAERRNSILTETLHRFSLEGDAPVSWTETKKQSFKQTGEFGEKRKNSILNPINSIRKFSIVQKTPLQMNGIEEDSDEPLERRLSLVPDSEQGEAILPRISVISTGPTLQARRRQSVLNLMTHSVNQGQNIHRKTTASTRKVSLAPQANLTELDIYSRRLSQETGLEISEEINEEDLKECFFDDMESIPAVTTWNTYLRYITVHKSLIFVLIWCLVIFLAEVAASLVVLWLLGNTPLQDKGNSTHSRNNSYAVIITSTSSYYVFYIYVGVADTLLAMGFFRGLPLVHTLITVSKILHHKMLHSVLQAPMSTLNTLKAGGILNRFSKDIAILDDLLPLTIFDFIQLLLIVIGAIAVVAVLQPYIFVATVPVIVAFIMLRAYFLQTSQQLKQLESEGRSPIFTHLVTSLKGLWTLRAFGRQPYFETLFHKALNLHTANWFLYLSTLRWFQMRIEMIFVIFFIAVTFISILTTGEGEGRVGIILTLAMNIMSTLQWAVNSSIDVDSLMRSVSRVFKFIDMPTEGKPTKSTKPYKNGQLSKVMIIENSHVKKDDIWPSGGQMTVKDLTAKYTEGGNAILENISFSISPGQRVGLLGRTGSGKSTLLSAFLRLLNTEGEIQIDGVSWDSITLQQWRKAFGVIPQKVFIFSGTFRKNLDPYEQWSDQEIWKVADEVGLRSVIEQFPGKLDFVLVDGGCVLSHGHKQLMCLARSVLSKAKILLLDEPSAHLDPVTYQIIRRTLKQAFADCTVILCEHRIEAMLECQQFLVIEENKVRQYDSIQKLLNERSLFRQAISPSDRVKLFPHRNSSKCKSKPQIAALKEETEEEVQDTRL

Row | pEC50 | Emax [%] | SMILES
1 | 7.85 | 252 | CC(C)C[C@H]1C(=O)N(C)[C@H](CC2CCCCC2)C(=O)N[C@H](Cc2ccccc2)COc2cnc3ccc(F)cc3c2C(=O)N[C@H](C(=O)NCCc2nc(C3CC3)no2)CC(=O)N1C [Example 696, (3S,7S,10R,13R)-13-benzyl-10-(cyclohexylmethyl)-N-(2-(3-cyclopropyl-1,2,4-oxadiazol-5-yl)ethyl)-20-fluoro-7-isobutyl-6,9-dimethyl-1,5,8,11-tetraoxo-1,2,3,4,5,6,7,8,9,10,11,12,13,14-tetradecahydro-[1]oxa[4,7,10,14]tetraazacycloheptadecino[17,16-c]quinoline-3-carboxamide]
2 | 7.57 | 306 | CC(C)C[C@H]1C(=O)N(C)[C@H](CC2CCCCC2)C(=O)N[C@H](Cc2ccccc2)COc2cnc3ccc(F)cc3c2C(=O)N[C@H](C(=O)NCCc2cc(C3CC3)no2)CC(=O)N1C [Example 697, (3S,7S,10R,13R)-13-benzyl-10-(cyclohexylmethyl)-N-(2-(3-cyclopropylisoxazol-5-yl)ethyl)-20-fluoro-7-isobutyl-6,9-dimethyl-1,5,8,11-tetraoxo-1,2,3,4,5,6,7,8,9,10,11,12,13,14-tetradecahydro-[1]oxa[4,7,10,14]tetraazacycloheptadecino[17,16-c]quinoline-3-carboxamide]
3 | 6.70 | 313 | Cc1cc(CCNC(=O)[C@@H]2CC(=O)N(C)[C@@H](CC(C)C)C(=O)N(C)[C@H](Cc3cccc4ccccc34)C(=O)N[C@H](Cc3ccccc3)COc3cnc4ccccc4c3C(=O)N2)on1 [Example 698, (3S,7S,10R,13R)-13-benzyl-7-isobutyl-6,9-dimethyl-N-(2-(3-methylisoxazol-5-yl)ethyl)-10-(naphthalen-1-ylmethyl)-1,5,8,11-tetraoxo-1,2,3,4,5,6,7,8,9,10,11,12,13,14-tetradecahydro-[1]oxa[4,7,10,14]tetraazacycloheptadecino[17,16-c]quinoline-3-carboxamide]
4 | 6.52 | 338 | Cc1cc(CCNC(=O)[C@@H]2CC(=O)N(C)[C@@H](CC(C)C)C(=O)N(C)[C@H](CC(F)F)C(=O)N[C@H](Cc3ccccc3)COc3cnc4ccccc4c3C(=O)N2)on1 [Example 699, (3S,7S,10R,13R)-13-benzyl-10-(2,2-difluoroethyl)-7-isobutyl-6,9-dimethyl-N-(2-(3-methylisoxazol-5-yl)ethyl)-1,5,8,11-tetraoxo-1,2,3,4,5,6,7,8,9,10,11,12,13,14-tetradecahydro-[1]oxa[4,7,10,14]tetraazacycloheptadecino[17,16-c]quinoline-3-carboxamide]
5 | 6.53 | 162 | Cc1cc(CCNC(=O)[C@@H]2CC(=O)N(C)[C@@H](CC(C)C)C(=O)N(CC3Cc4ccccc4O3)CC(=O)N[C@H](Cc3ccccc3)COc3cnc4ccccc4c3C(=O)N2)on1 (stereo partly drawn) [Example 702, (3S,7S,13R)-13-benzyl-9-((2,3-dihydrobenzofuran-2-yl)methyl)-7-isobutyl-6-methyl-N-(2-(3-methylisoxazol-5-yl)ethyl)-1,5,8,11-tetraoxo-1,2,3,4,5,6,7,8,9,10,11,12,13,14-tetradecahydro-[1]oxa[4,7,10,14]tetraazacycloheptadecino[17,16-c]quinoline-3-carboxamide]
6 | 6.50 | 167 | Cc1cc(CCNC(=O)[C@@H]2CC(=O)N(C)[C@@H](CC(C)C)C(=O)N(CC[C@@H]3CCCCO3)CC(=O)N[C@H](Cc3csc4ccccc34)COc3cnc4ccccc4c3C(=O)N2)on1 [Example 703, (3S,7S,13R)-13-(benzo[b]thiophen-3-ylmethyl)-7-isobutyl-6-methyl-N-(2-(3-methylisoxazol-5-yl)ethyl)-1,5,8,11-tetraoxo-9-(2-((S)-tetrahydro-2H-pyran-2-yl)ethyl)-1,2,3,4,5,6,7,8,9,10,11,12,13,14-tetradecahydro-[1]oxa[4,7,10,14]tetraazacycloheptadecino[17,16-c]quinoline-3-carboxamide]
7 | 6.40 | 156 | Cc1cc(CCNC(=O)[C@@H]2CC(=O)N(C)[C@@H](CC(C)C)C(=O)N(C[C@H]3COc4ccccc4C3)CC(=O)N[C@H](Cc3ccccc3)COc3cnc4ccccc4c3C(=O)N2)on1 [Example 704, (3S,7S,13R)-13-benzyl-9-(((S)-chroman-3-yl)methyl)-7-isobutyl-6-methyl-N-(2-(3-methylisoxazol-5-yl)ethyl)-1,5,8,11-tetraoxo-1,2,3,4,5,6,7,8,9,10,11,12,13,14-tetradecahydro-[1]oxa[4,7,10,14]tetraazacycloheptadecino[17,16-c]quinoline-3-carboxamide]
8 | 6.52 | 193 | Cc1cc(CCNC(=O)[C@@H]2CC(=O)N(C)[C@@H](CC(C)C)C(=O)N(C[C@@H]3COc4ccccc4C3)CC(=O)N[C@H](Cc3ccccc3)COc3cnc4ccccc4c3C(=O)N2)on1 [Example 705, (3S,7S,13R)-13-benzyl-9-(((R)-chroman-3-yl)methyl)-7-isobutyl-6-methyl-N-(2-(3-methylisoxazol-5-yl)ethyl)-1,5,8,11-tetraoxo-1,2,3,4,5,6,7,8,9,10,11,12,13,14-tetradecahydro-[1]oxa[4,7,10,14]tetraazacycloheptadecino[17,16-c]quinoline-3-carboxamide]
9 | 6.15 | 162 | Cc1cc(CCNC(=O)[C@@H]2CC(=O)N(C)[C@@H](CC(C)C)C(=O)N(C[C@H]3CCCC(C)(C)O3)CC(=O)N[C@H](Cc3ccccc3)COc3cnc4ccccc4c3C(=O)N2)on1 [Example 706, (3S,7S,13R)-13-benzyl-9-(((R)-6,6-dimethyltetrahydro-2H-pyran-2-yl)methyl)-7-isobutyl-6-methyl-N-(2-(3-methylisoxazol-5-yl)ethyl)-1,5,8,11-tetraoxo-1,2,3,4,5,6,7,8,9,10,11,12,13,14-tetradecahydro-[1]oxa[4,7,10,14]tetraazacycloheptadecino[17,16-c]quinoline-3-carboxamide]
10 | 6.30 | 305 | Cc1cc(CCNC(=O)[C@@H]2CC(=O)N(C)[C@@H](CC(C)C)C(=O)N(C[C@@H]3CCCC(C)(C)O3)CC(=O)N[C@H](Cc3ccccc3)COc3cnc4ccccc4c3C(=O)N2)on1 [Example 707, (3S,7S,13R)-13-benzyl-9-(((S)-6,6-dimethyltetrahydro-2H-pyran-2-yl)methyl)-7-isobutyl-6-methyl-N-(2-(3-methylisoxazol-5-yl)ethyl)-1,5,8,11-tetraoxo-1,2,3,4,5,6,7,8,9,10,11,12,13,14-tetradecahydro-[1]oxa[4,7,10,14]tetraazacycloheptadecino[17,16-c]quinoline-3-carboxamide]
11 | 6.06 | 195 | Cc1cc(CCNC(=O)[C@@H]2CC(=O)N(C)[C@@H](CC(C)C)C(=O)N(C)C3(CCCC3)C(=O)N[C@H](Cc3ccccc3)COc3cnc4ccccc4c3C(=O)N2)on1 [Example 708, (3′S,7′S,13′R)-13′-benzyl-7′-isobutyl-6′,9′-dimethyl-N-(2-(3-methylisoxazol-5-yl)ethyl)-1′,5′,8′,11′-tetraoxo-2′,3′,4′,5′,6′,7′,8′,9′,11′,12′,13′,14′-dodecahydro-1′H-spiro[cyclopentane-1,10′-[1]oxa[4,7,10,14]tetraazacycloheptadecino[17,16-c]quinoline]-3′-carboxamide]
12 | 7.33 | 284 | Cc1cc(CCNC(=O)[C@@H]2CC(=O)N(C)[C@@H](CC(C)C)C(=O)N(C)[C@H](CC3CCCCC3)C(=O)N[C@H](Cc3ccccc3)COc3cnc4ccccc4c3C(=O)N2)on1 [Example 709, (3S,7S,10R,13R)-13-benzyl-10-(cyclohexylmethyl)-7-isobutyl-6,9-dimethyl-N-(2-(3-methylisoxazol-5-yl)ethyl)-1,5,8,11-tetraoxo-1,2,3,4,5,6,7,8,9,10,11,12,13,14-tetradecahydro-[1]oxa[4,7,10,14]tetraazacycloheptadecino[17,16-c]quinoline-3-carboxamide]
13 | 6.83 | 280 | Cc1cc(CCNC(=O)[C@@H]2CC(=O)N(C)[C@@H](CC(C)C)C(=O)N(C)[C@H](C3CCCC3)C(=O)N[C@H](Cc3ccccc3)COc3cnc4ccccc4c3C(=O)N2)on1 [Example 710, (3S,7S,10R,13R)-13-benzyl-10-cyclopentyl-7-isobutyl-6,9-dimethyl-N-(2-(3-methylisoxazol-5-yl)ethyl)-1,5,8,11-tetraoxo-1,2,3,4,5,6,7,8,9,10,11,12,13,14-tetradecahydro-[1]oxa[4,7,10,14]tetraazacycloheptadecino[17,16-c]quinoline-3-carboxamide]

Row | SMILES | pEC50 | Emax [%]
14 | CC(C)C[C@H]1C(=O)N(CC2COc3ccccc3C2)CC(=O)N[C@H](Cc2ccccc2)COc2ccc3ccccc3c2C(=O)N[C@H](C(=O)NCCc2ccc3c(c2)OCO3)CC(=O)N1C (stereo partly drawn) [Example 700, (3S,7S,13R)—N-(2-(Benzo[d][1,3]dioxol-5-yl)ethyl)-13-benzyl-9-(((S)-chroman-3-yl)methyl)-7-isobutyl-6-methyl-1,5,8,11-tetraoxo-1,2,3,4,5,6,7,8,9,10,11,12,13,14-tetradecahydronaphtho[1,2-p][1]oxa[4,7,10,14]tetraazacycloheptadecine-3-carboxamide] | 6.73 | 186
15 | COc1cccc(CCNC(=O)[C@@H]2CC(=O)N(C)[C@@H](CC(C)C)C(=O)N(CCC3CCCCC3)CC(=O)N[C@H](Cc3ccccn3)COc3ccc4ccccc4c3C(=O)N2)c1 [Example 701, (3S,7S,13R)-9-(2-cyclohexylethyl)-7-isobutyl-N-(3-methoxyphenethyl)-6-methyl-1,5,8,11-tetraoxo-13-(pyridin-2-ylmethyl)-1,2,3,4,5,6,7,8,9,10,11,12,13,14-tetradecahydronaphtho[1,2-p][1]oxa[4,7,10,14]tetraazacycloheptadecine-3-carboxamide] | 6.78 | 268
